In PMC11643720, “Addressing the Evolution of Cardenolide Formation in Iridoid-Synthesizing Plants: Site-Directed Mutagenesis of PRISEs (Progesterone-5β-Reductase/Iridoid Synthase-like Enzymes) of Plantago Species” (Molecules, 2024):
Read-outs that look alike come from different tables or passages of the source.

Key:
[1] = tested on: T1, rPlP5βR1 (PlP5βR1, PlP5βR); assay: NADPH oxidation at […] nm, Michaelis-Menten; assay type: biochemical, Plantago lanceolata; settings: 0.2 mM NADPH, phosphate buffer pH 8.0, 40 °C; SD < 25%
T1 construct: gene P5βR1; full-length CDS 1170 bp, 389 aa; pDEST17, N-terminal 6xHis tag, E. coli SoluBL21 (mutants BL21(DE3)), Ni-NTA; printed WKF numbers of the two species may be swapped; wild type has L156 and L346 (abstract misprints A156, F346)

[2] = tested on: T2, rPmdP5βR1 (PmdP5βR1, PmdP5βR); assay: NADPH oxidation at […] nm, Michaelis-Menten; assay type: biochemical, Plantago media; settings: 0.2 mM NADPH, phosphate buffer pH 8.0, 40 °C, SD < 25%
T2 construct: gene P5βR1; full-length CDS 1170 bp, 389 aa; pDEST17, N-terminal 6xHis tag, E. coli SoluBL21 (mutants BL21(DE3)), Ni-NTA; printed WKF numbers of the two species may be swapped; wild type has F156 and A346

[3] = tested on: T1, rPlP5βR1 (PlP5βR1, PlP5βR); assay: NADPH oxidation at […] nm, Michaelis-Menten; assay type: biochemical, Plantago lanceolata; settings: 0.2 mM NADPH, phosphate buffer pH 8.0, 40 °C, SD < 25%, read-out: rPlP5βR1 / L156F
[4] = tested on: T2, rPmdP5βR1 (PmdP5βR1, PmdP5βR); assay: NADPH oxidation at […] nm, Michaelis-Menten; assay type: biochemical, Plantago media; settings: 0.2 mM NADPH, phosphate buffer pH 8.0, 40 °C, SD < 25%, read-out: rPmdP5βR1 / DMT
[5] = tested on: T1, rPlP5βR1 (PlP5βR1, PlP5βR); assay: NADPH oxidation at […] nm, Michaelis-Menten; assay type: biochemical, Plantago lanceolata; settings: 0.2 mM NADPH, phosphate buffer pH 8.0, 40 °C, SD < 25%, read-out: rPlP5βR1 / DMT
[6] = tested on: T3, rPlP5βR1 (PlP5βR1, PlP5βR); settings: read-out: rPlP5βR1 / L346A; 0.2 mM NADPH, phosphate buffer pH 8.0, 40 °C, DMSO added at 0.4-0.6 mM progesterone; SD < 25%
T3 construct: gene P5βR1

[7] = tested on: T4, rPmdP5βR1 (PmdP5βR1, PmdP5βR); settings: read-out: rPmdP5βR1 / F156L; 0.2 mM NADPH, phosphate buffer pH 8.0, 40 °C, DMSO added at 0.4-0.6 mM progesterone; SD < 25%
T4 construct: gene P5βR1

[8] = tested on: T4, rPmdP5βR1 (PmdP5βR1, PmdP5βR); settings: read-out: rPmdP5βR1 / A346L; 0.2 mM NADPH, phosphate buffer pH 8.0, 40 °C, DMSO added at 0.4-0.6 mM progesterone; SD < 25%
[9] = DMSO added at 0.4-0.6 mM progesterone

Km [1] [µM] | Km [2] [µM] | Km [3] [µM] | Km [4] [µM] | Structure (SMILES) | Km [5] [µM] | Km [2, 9] [µM] | Km [3, 9] [µM] | Km [4, 9] [µM] | Km [5, 9] [µM] | Km [6] [µM] | Km [7] [µM] | Km [8] [µM]
66 | 46 | 16 | – | O=C1C=CCCC1 [2-cyclohexen-1-one] | – | – | – | – | – | – | – | –
100 | 19 | – | 7 | C/C(C=O)=C\CC/C(C)=C/C=O [8-oxogeranial] | 10 | – | – | – | – | – | – | –
– | – | – | – | CC(=O)[C@H]1CC[C@H]2[C@@H]3CCC4=CC(=O)CC[C@]4(C)[C@H]3CC[C@]12C [progesterone] | – | 67 | 451 | 587 | 44 | 170 | 128 | 218

Structure (SMILES) | Km [1] [µM] | Km [2] [µM] | Km [3] [µM] | Km [4] [µM] | Km [5] [µM] | Km [2, 9] [µM] | Km [3, 9] [µM] | Km [4, 9] [µM] | Km [5, 9] [µM] | Km [6] [µM] | Km [7] [µM] | Km [8] [µM]
C=CC(C)=O [methyl vinyl ketone] | 100 | 33 | – | – | 216 | – | – | – | – | – | – | –
